US5688818A, “Succinamic acid compound, production method thereof and use thereof” (Senju Pharmaceutical Co., Ltd., priority 1993, dated 1997)

Legend:
[1] = tested on: sorbitol content in the tissues (erythrocytes, sciatic nerve, lens); experiment: Inhibitory action on sorbitol accumulation in tissues of rats with experimental diabetes; assay type: in vivo, Sprague-Dawley rats; settings: relative to control group = 100%; for Sorbitol accumulation (%) nerve: sciatic nerve
Protocol: 2) Inhibitory action on sorbitol accumulation in tissues of rats with experimental diabetes
Test Compounds: Compounds of Example 23 and 29 and EPALRESTAT (described in Japanese Patent Unexamined Publication No. 40478/1982)
Sprague-Dawley rats (male, 6 weeks old, 5-6 per group) were fasted for 18 hours and injected with streptozotocin (SIGMA, 60 mg/kg) via the tail vein under ether anesthesia to prepare rats with diabetes.
The test compounds were orally administered at 4, 8 and 24 hours after the injection of streptozotocin. EPALRESTAT was administered orally in the dose of 30 mg/kg and the compounds of Examples 23 and 29 were administered orally in the dose of 10 mg/kg as a 0. 5% carboxymethylcellulose suspension, respectively. During the administrations, the rats were raised under free access to feed and water and the sorbitol content in the tissues (erythrocytes, sciatic nerve, lens) was determined 3 hours after the final administration, according to the enzyme method of H. Y. Bergmeyer et al. [Methods of Enzymatic Analysis, vol. 3, 1323-1330 (1974)] with the use of SDH (sorbitol dehydrogenase) and NAD (β-nicotinamide adenine dinucleotide). The results are expressed in percent (%) relative to the value of a control group administered with a 0.5% carboxymethylcellutose solution (solvent) instead of the compound, which was taken as 100%.

aldose reductase = target: T1, aldose reductase (Sus scrofa, UniProt P80276); experiment: Aldose reductase activity-inhibitory action; assay type: biochemical; settings: pH 6.2, 25° C., 2 minutes, 3 mM dl-glyceraldehyde substrate, 0.1 mM NADPH, swine lens enzyme
T1 construct: swine lenses freeze-stored at -80° C. were homogenized with distilled water; from tissue; host or cells: swine lens (40% ammonium sulfate supernatant, dialyzed)
Protocol: 1) Aldose reductase activity-inhibitory action
That is, swine lenses freeze-stored at -80° C. were homogenized with distilled water and centrifuged at 10,000 G for 15 minutes. The supernatant was prepared into a 40% ammonium sulfate solution and subjected to centrifugation at 10,000 G for 10 minutes.
The activity of aldose reductase was determined by the above-mentioned method of S. Hayman et al. That is, the above-mentioned enzyme solution (25 μl) and a drug solution (25 μl) dissolved in 1% DMSO at various concentrations were added to a 40 mM phosphate buffer (200 μl, pH 6.2) containing, at final concentrations, 0.4M lithium sulfate, 0. 1 mM NADPH (reduced type nicotinamide adenine dinucleotide phosphate) and 3 mM dl-glyceraldehyde as a substrate.
The test drug number indicates the example number to be mentioned later.

Normal ICR mice = settings: mouse, in vivo
Protocol: The acute toxicity (safety) of the single dose of the compound of the present invention was confirmed by the following test.
Normal ICR mice (male, 7 weeks old, 5 per group) were fasted for 18 hours and the compound (300 mg/kg) of Example 29 was orally administered as a 0.5% carboxymethylcellulose suspension. To the control group, a 0.5% carboxymethylcellulose solution alone was orally administered and observation was continued for 14 days thereafter, during which period the mice were allowed to take feed and water freely.

[2] = 30 mg/kg orally at 4, 8 and 24 hours after streptozotocin
[3] = 10 mg/kg orally at 4, 8 and 24 hours after streptozotocin, * p < 0.01 Tukey

CC(/C=C1\SC(=S)N(CC(=O)O)C1=O)=C\c1ccccc1 [EPALRESTAT, reference compound]
Sorbitol accumulation (%) erythrocytes [1, 2]: 66.5%
Sorbitol accumulation (%) lens [1, 2]: 89.1%
Sorbitol accumulation (%) nerve [1, 2]: 99.9%
IC50 (aldose reductase): 0.021 µM

CN(Cc1nc2c(F)c(F)cc(F)c2s1)C(=O)CCC(=O)O [Example 23, N-(4,5,7-Trifluorobenzothiazol-2-yl)methyl-N-methylsuccinamic acid]
Sorbitol accumulation (%) erythrocytes [1, 3]: 6.3%
Sorbitol accumulation (%) lens [1, 3]: 69.5%
Sorbitol accumulation (%) nerve [1, 3]: 4.2%
IC50 (aldose reductase): 0.013 µM

CCCCN(Cc1nc2c(F)c(F)cc(F)c2s1)C(=O)CCC(=O)O [Example 26, N-(4,5,7-Trifluorobenzothiazol-2-yl)methyl-N-butylsuccinamic acid]
IC50 (aldose reductase): 0.018 µM

O=C(O)CCC(=O)N(Cc1nc2c(F)c(F)cc(F)c2s1)C1CC1 [Example 29]
Sorbitol accumulation (%) erythrocytes [1, 3]: 12.2%
Sorbitol accumulation (%) lens [1, 3]: 45.4%
Sorbitol accumulation (%) nerve [1, 3]: 1.0%
IC50 (aldose reductase): 0.017 µM
death case among the mice (Normal ICR mice): no death case
